This is an account of results in patent publication US20230069886A1, “AROMATIC SULPHONAMIDES DERIVATIVES THAT INHIBITS PDI A3, THEIR SYNTHESIS AND USE” (Uniwersytet Jagiellonski, priority 2020, published 2023).

≈ marks a conversion by molar mass, not a printed value. Where two headings read alike, the source gives them in different places.

One experiment has as its system MDA-MB-231. Briefly: MTT antiproliferative assay, 72 h, with or without estradiol, MDA-MB-231. As to conditions: for IC50: Homo sapiens, MDA-MB-231, 72 hours exposition, MTT; for Sensitivity of MDA-MB-231 line after treatment with estradiol: estradiol (200 nM), Table 4. It counts as cell-based, human. On the procedure:
(§1) Anticancer activity of selected compounds of invention, PDI A3-inhibitors has been also tested in vitro in antiproliferative assay in normoxic and hypoxic conditions as well in estrogen-stimulated cancer cells. In the experiment, cells were seeded on 96-well plates (Sarstedt, Germany) in appropriate culture medium at a density of 10^5 cells/mL 24 h before adding the tested compounds. Cells were treated with each compound in four concentrations in the range 0.1-100 μg/mL. […] After 72 h of compound treatment at 37° C., 5% CO2 humid atmosphere and in wo different oxygen level conditions: 21%—normal and <1%—hypoxia. In some experiments the MDA-MB-231 and MCF-7 cells were seeded with or without 200 nM estradiol and after 24 h the tested compounds were added. A previously described sulforhodamine B antiproliferative assay was used with minor modifications (Skehan P et al., 1990). Briefly, cells were fixed with 50 μL/well of 50% (w/v) trichloroacetic acid (Avantor Performance Materials, Gliwice, Poland). After 1 h incubation, plates were washed several times with tap water and 50 μL of 0.4% (w/v) solution of sulforhodamine B (Sigma-Aldrich, Germany) in 1% (v/v) acetic acid (Avantor Performance Materials, Gliwice, Poland) was added to each well. After 30 min incubation at room temperature, unbound dye was washed out with 1% (v/v) acetic acid, whereas bound dye was solubilized with 10 mM unbuffered TRIS (Avantor Performance Materials, Gliwice, Poland) solution. The entire procedure was performed using a BioTek EL-406 washing station (BioTek Instruments, USA). After additional 30 min, absorbance was read using a Biotek Hybrid H4 reader (BioTek Instruments, USA) at 540 nm wavelength. MTT assay was used alternatively for HL-60 cell line and in the experiment in which estrogens are added (specified in the table legend). Absorbance was measured using a Biotek Hybrid H4 reader at 570 nm wavelength for MTT assay.
(§2) Compounds at each concentration were tested in triplicate in a single experiment and each experiment was repeated at least three times independently. Results are presented as mean IC50±SD.

Another experiment relates to HL-60. As to the kind of experiment: MTT antiproliferative assay, 72 h, HL-60. The class given is cell-based, human. As to conditions: Homo sapiens, HL-60, 72 hours exposition, read-out: IC50 [μg/ml] HL-60 normal. On the procedure:
as §1, §2

In the next experiment the test system is MCF-10A. Briefly: Selectivity index MCF-10A versus MCF-7. As to conditions: 72 hours exposition. It counts as cell-based. The procedure:
as §1
Compounds at each concentration were tested in triplicate in a single experiment and each experiment was repeated at least three times independently. […]

For a further experiment, the system named is HT-29. Briefly: MTT antiproliferative assay, 72 h, HT-29. The class given is cell-based, human. As to conditions: Homo sapiens, HT-29, 72 hours exposition, read-out: IC50 [μg/ml] HT-29 normal. On the procedure: as §1, with “A previously described sulforhodamine B antiproliferative assay was used with minor modifications (Skehan P et al., 1990).” left out, “MTT assay was used alternatively for HL-60 cell line and in the experiment in which estrogens are added (specified in the table legend).” left out
as §2

The test system of the next experiment is MCF-7. Briefly: MTT antiproliferative assay, 72 h, with or without estradiol, MCF-7. It counts as cell-based, human. As to conditions: for IC50: Homo sapiens, MCF7, 72 hours exposition, MTT; for Lower sensitivity after treatment with estradiol in MCF-7: estradiol (200 nM), Table 4. The procedure: as §1, §2
The next experiment has as its system arterial thrombosis. Briefly: In vivo models of arterial thrombosis. Set-up: species or system rat or mice. As to conditions: FIG. 5. The procedure: To confirm antithrombotic activity of compounds of invention, inhibitors of PDIA3, pharmacological activity of selected compounds was tested in vivo in the rat or mice model of arterial thrombosis. Wistar rats were anaesthetized with pentobarbital (40 mg/kg, i.p.) and placed in a supine position on a heated (37° C.) operating table. Arterial thrombosis was induced by electrical stimulation of the right common carotid artery, as previously described (Kramkowski et al., 2012). Briefly, the anode, a stainless steel L-shaped wire, was inserted under the artery and connected to a constant current generator. The cathode was attached subcutaneously to the hind limb. The artery was stimulated (1 mA) for 10 min. Fifty-five minutes after the beginning of stimulation, the segment of the common carotid artery containing the formed thrombus was dissected and opened lengthwise, and the thrombus was completely removed and air-dried at room temperature for 24 h. Thrombus was then weighed in a blinded manner. Antithrombotic effects of compounds of invention in mice was analyzed using intravital fluorescence confocal microscopy as described previously (Hayashi T et al., 2008). […] Changes in fluorescence intensity were measured as described previously (Hayashi T et al., 2008, Kramkowski et al., 2002)

Experiment [1] has as its system MDA-MB-231 cell transmigration across IL-1β-stimulated hLMVECs. Briefly: Transendothelial migration of MDA-MB-231 cells across hLMVEC monolayer. The class given is cell-based, human. As to conditions: IL-1β 10 ng/mL (6 hours)-stimulated hLMVECs, 24 h co-culture, FIG. 6. The procedure: To assess whether compounds of invention, PDI A3-inhibitors are also effective as inhibitors of cancer cell transmigration through endothelium the transmigration assay with MDA-MB-231/lung microvascular endothelium was used as described previously (Stojak et al., 2018). Cell migration was assayed in 24-well, 6.5-mm internal-diameter Transwell plates (8.0 μm pore size; BD Pharmingen). Human lung microvascular endothelial cells (hLMVECs) were seeded into 24-well plates (seeding density 5×10^4 cells/insert) on the upper side of the filter and left to grow to confluence. After confluent monolayer formation, hLMVECs were pre-treated with 10 ng/mL IL-1β for 6 h. Prior to use in transmigration assay, cancer cells were pre-incubated with various concentrations (3, 10, 30, 50, 100 μM) of tested inhibitors of PDIA3, C-3390, C-3399 for 30 min. Then, MDA-MB-231 cells (each 5×10^4 per well) were placed into upper chambers and tested PDI inhibitors at various concentrations (1, 10, 30, 50, 100 μM) were given. Lower chambers were filled with medium containing chemoattractant (20% FBS or 100 ng/mL SDF-1α). After 24 h of co-culture, hLMVEC monolayers and non-migrating cancer cells on the upper surface of the membrane were removed. […] The cell number was determined by measuring the fluorescence using plate reader. […]

The test system of another experiment is human platelets. Briefly: Light transmission aggregometry of collagen-stimulated human platelet-rich plasma. It counts as cell-based. As to conditions: human PRP, FIG. 2, 3. The procedure:
Anti-platelet activity of compounds of invention was assessed using light transmission aggregometry assay of human platelet-rich plasma (PRP). Venous blood was obtained from male volunteers at the University Hospital Blood Bank Centre. Volunteer donors had not taken any medicines for the preceding two weeks. Blood was collected into vials containing sodium citrate (3.2%, 9:1 v/v) as an anti-coagulant agent. To obtain platelet rich plasma (PRP), blood was centrifuged at 260×g for 15 min. The platelet […] plasma fraction (used as a blank sample) was obtained by centrifugation of the remaining blood for 10 min at 2600×g. Aggregation of blood platelets was assessed in PRP with a dual channel Chronolog aggregometer (CHRONO-LOG) using a method previously described by Born^35. PRP (500 μl) was equilibrated for 2 min at 37° C. with a continuous stirring at 800 rpm and then stimulated with collagen to cause aggregation. At the beginning of each experiment, concentrations of collagen that induced sub-maximum aggregation response were determined. These concentrations were in the range of […], respectively. All the tested compounds were added 2 min prior to stimulation of platelets with collagen. Transmittance was read 6 min after stimulation of platelets with an agonist. […]

Where [2] appears, read: not pretreated with estradiol, read-out: IC50 [μg/ml] MDA-MB-231 normal.
[3] abbreviates: pretreated with 200 nM estradiol, read-out: IC50 [μg/ml] MDA-MB-231 +estradiol.
Where [4] appears, read: not pretreated with estradiol, read-out: IC50 [μg/ml] MCF-7 normal.
Where [5] appears, read: pretreated with 200 nM estradiol, read-out: IC50 [μg/ml] MCF-7 +estradiol.

Regarding `CN(C)C(=O)C1CN1S(=O)(=O)c1ccc2ccccc2c1` (stereo not shown) [Compound C-3373, N,N-Dimethyl-1-(2-naphthylsulfonyl)aziridine-2-carboxamide], the IC50 with MDA-MB-231 (setting [2]) was found to be 3.2 ± 0.1 µg/mL (≈ 10.5 µM); in the experiment with MDA-MB-231 (setting [3]), 3.2 ± 0.3 µg/mL (≈ 10.5 µM); in the experiment on HL-60, 3.1 ± 0.1 µg/mL (≈ 10.2 µM); in the experiment on HT-29, 33.4 ± 1.1 µg/mL (≈ 110 µM); in the experiment with MCF-7 (setting [4]) it was 3.3 ± 0.1 µg/mL (≈ 10.8 µM); in the experiment on MCF-7 (setting [5]), 2.6 ± 0.5 µg/mL (≈ 8.54 µM). Further, in the experiment on MCF-10A, the “Selectivity index (SI): IC50 of MCF-10A/IC50 of MCF-7” value (shortened to “Selectivity index (SI): IC50”) is recorded as 1.20.
Consider `COC(=O)C1CN1S(=O)(=O)c1ccc(N(C)C)cc1` (stereo not shown) [Compound C-3343, Methyl 1-[4-(dimethylamino)phenyl]sulfonylaziridine-2-carboxylate], for which the “Anti-thrombotic effects in vivo” value in the experiment with arterial thrombosis was “anti-thrombotic effects”.
Regarding `COC(=O)C1CN1S(=O)(=O)c1ccc2c(N(C)C)cccc2c1` (stereo not shown) [Compound C-3399, Methyl 1-[[5-(dimethylamino)-2-naphthyl]sulfonyl]aziridine-2-carboxylate], in experiment [1], the “Inhibition of MDA-MB-231 cell transmigration” value was “inhibited MDA-MB-231 cell transmigration”. In addition, the IC50 turned out to be 2.9 ± 0.3 µg/mL (≈ 8.67 µM) in the experiment with MDA-MB-231 (setting [2]); 6.4 ± 1.9 µg/mL (≈ 19.1 µM) in the experiment on MDA-MB-231 (setting [3]); 2.4 ± 0.3 µg/mL (≈ 7.18 µM) in the experiment on HL-60; 4.3 ± 0.2 µg/mL (≈ 12.9 µM) with HT-29; 3.7 ± 0.3 µg/mL (≈ 11.1 µM) in the experiment with MCF-7 (setting [4]); 4.3 ± 0.3 µg/mL (≈ 12.9 µM) in the experiment on MCF-7 (setting [5]). Further, the “Sensitivity of MDA-MB-231 line after treatment with estradiol” value with MDA-MB-231 is recorded as “slightly lower sensitivity”. Besides, in the experiment with MCF-10A, the “Selectivity index (SI): IC50” value stood at 1.6. Also, in the experiment on MCF-7, the “Lower sensitivity after treatment with estradiol in MCF-7” value is “not observed”. For the same compound, the “Inhibition of platelet aggregation” value in the experiment with human platelets is given as “lowest EC50”.
Take `COC(=O)C1CN1S(=O)(=O)c1cccc2cc(N(C)C)ccc12` (stereo not shown) [Compound C-3375, Methyl 1-[[6-(dimethylamino)-1-naphthyl]sulfonyl]aziridine-2-carboxylate]: the IC50 was 3.8 ± 0.1 µg/mL (≈ 11.4 µM) in the experiment with MDA-MB-231 (setting [2]); 7 ± 1.1 µg/mL (≈ 20.9 µM) in the experiment on MDA-MB-231 (setting [3]); 3.3 ± 0.2 µg/mL (≈ 9.87 µM) with HL-60; 27.8 ± 7.5 µg/mL (≈ 83.1 µM) in the experiment with HT-29; 3.5 ± 0.4 µg/mL (≈ 10.5 µM) in the experiment with MCF-7 (setting [4]); 3.4 ± 0.3 µg/mL (≈ 10.2 µM) in the experiment on MCF-7 (setting [5]). For the same compound, the “Sensitivity of MDA-MB-231 line after treatment with estradiol” value in the experiment with MDA-MB-231 is listed as “slightly lower sensitivity”. For the same compound, the “Selectivity index (SI): IC50” value with MCF-10A came to 6.90. For the same compound, the “Lower sensitivity after treatment with estradiol in MCF-7” value with MCF-7 is reported as “not observed”.
